Results taken from patent publication US9198431B2, “Use of N6-(2-hydroxyethyl)-adenosine in preparation of crop pesticide” (Zhejiang Subtropical Crops Research Institute, priority 2013, dated 2015).

Tests used:
Format in all cases: in vivo
diamondback moth larvae [1] = test: Selective antifeeding (feeding suppression), leaf disk dipping; conditions: for Selective antifeeding rate: third-instar larvae
Description: (§1) Test Method: • Preparing N6-(2-hydroxyethyl)-adenosine solutions of various concentrations; • Diluting the 20% N6-(2-hydroxyethyl)-adenosine suspension to make solutions with 1000 mg/L, 800 mg/L, 600 mg/L, 400 mg/L, and 200 mg/L active ingredient concentrations, respectively, for testing the roles of N6-(2-hydroxyethyl)-adenosine in stomach poisoning of diamondback moth larvae. • Diluting the 20% N6-(2-hydroxyethyl)-adenosine suspending agent to make solutions with 300 mg/L, 250 mg/L, 200 mg/L, 150 mg/L and 100 mg/L active ingredient concentrations, respectively, to test the roles of N6-(2-hydroxyethyl)-adenosine in suppressing feeding and retarding development of diamondback moth larvae.
(§2) Round leaf disk dipping method was employed in this test. Prepare leaf disks out of cabbage leaves with a round hole puncher (d=2 cm), and soak the disks in N6-(2-hydroxyethyl)-adenosine solutions with different concentrations for 30 seconds. Then, take the leaf disks out and drain the excessive solution with clean blotting paper to prepare them for treatments. Use 0.1% triton solution as a blank control.
Put a good-size piece of filter paper in a Petri-dish, and then put two processed and two control leaf disks into the same Petri-dish, which are arrayed in a cross fashion. Inoculate three third-instar diamondback moth larvae that have been subjected to 4-hour starvation treatments onto the leaf disks and seal the dish. Prepare 10 replicas for each treatment group. After 48 hours, pick five replicas with 0% death rate to measure the leaf areas that have been consumed by the larvae with a grid paper and calculate the average leaf consumption areas. Antifeeding Rate (%)=[(Leaf Consumption Area in the Control Group−Leaf Consumption Area in the Treatment Group)÷(Leaf Consumption Area in the Control Group+Leaf Consumption Area in the Treatment Group)]×100.

aphids = test: Insecticidal activity on aphids; conditions: experimental data omitted
diamondback moth larvae [2] = test: Development retardation (weight gain inhibition) of diamondback moth larvae; conditions: for Average Weight (10 Tested Larvae) (mg) Δ4d: weight gain
Description: as §1
Soak the cabbage leaves (7 cm in diameters) in the prepared solutions for 30 seconds, take the leaves out, leave them to dry, and then transfer the dried leaves to a Petri-dish (9 cm in diameter) cushioned with a wet filter paper. Inoculate 15 weighed third-instar diamondback moth larvae onto each Petri-dish. […] Prepare four replicas for each treatment group to determine the effects of various solutions in inhibiting the weight gain of the larvae.
Weight-Gain Inhibition Rate (%)=[(the Average Weight Gain of the Control Group−the Average Weight Gain of the Treatment Group)÷the Average Weight Gain of the Control Group]×100.
(§3) The results obtained were analyzed for significances of difference using Ducan's New Multiple Range Method. The various lowercase letters following the data in the same column indicate significant differences at a level of 0.05 level (P<0.05). The various capital letters following the data in the same column indicate significant differences at a level of 0.01 (P<0.01).

diamondback moth larvae [3] = test: Non-selective antifeeding, leaf disk dipping; conditions: third-instar larvae
Description: as §1, §2
Put a good-sized piece of filter paper in a Petri-dish, and then put two processed leaf disks in the same Petri-dish and another two control leaf disks in a different dish. Inoculate three third-instar diamondback moth larvae that have been subjected to 4-hour starvation treatments onto the leaf disks and seal the dish. Prepare 10 replicas for each treatment group. After 48 hours, pick five replicas with 0% death rate to measure the leaf areas that have been consumed by the larvae with a grid paper and calculate the average leaf consumption areas. Non-Selective Antifeeding Rate (%)=[(Leaf Consumption Area in the Control Group—Leaf Consumption Area in the Treatment Group)÷Leaf Consumption Area in the Control Group]×100.

diamondback moth larvae [4] = test: Stomach poisoning (oral toxicity) of diamondback moth larvae; conditions: for Average Corrected Death Rate (%), stomach poisoning: 96 h
Description: Test Insects: Artificial subculture breeding of diamondback moths collected at Xinqiao greenhouse vegetable field in Wenzhou was carried out in a thermostat illumination incubator and the second-instar larvae breeds of a consistent size and color were picked for tests.
as §1
Cut healthy, fresh cabbage leaves in small pieces that are 7 cm in diameters. Smear these pieces with various spore suspensions and leave them to dry naturally. Repeat the smearing process 3 times, and then put the leaves in plastic Petri-dishes with tiny holes that are 2 cm in diameter. Cover the dishes with nylon membranes to keep the leaves fresh.
Pick out healthy indoor bred third-instar diamondback moth larvae of similar sizes with a writing brush, and inoculate them onto the cabbage leaves. Make 4 replicas of the treatments, each of which should contain 20 tested larvae. Cultivate the dishes in an incubator set to 25±1° C., 75˜80% relative humidity and 16 L:8D illumination. Observe and record the number of larvae that die of infection every day. Use 0.1% triton solution as a blank control and use the Abbott formula for correction of death rates. Corrected Death Rate (%)=[(Death Rate of the Treatment Group−Death Rate of the Control Group)/(1−Death Rate of the Control Group)]×100.
as §3

Question: What does the source list for OCCNc1ncnc2c1ncn2[C@@H]1O[C@H](CO)[C@@H](O)[C@H]1O [N6-(2-hydroxyethyl)-adenosine]?
Answer: Selective antifeeding rate (diamondback moth larvae [1]; 200 mg/L, 48 hour): 71.30%; Selective antifeeding rate (diamondback moth larvae [1]; 250 mg/L, 48 hours): 83.47%; Selective antifeeding rate (diamondback moth larvae [1]; 300 mg/L, 48 hours): 83.82%; Feeding capacity of the tested larvae (FIGS. 2 and 3) (diamondback moth larvae [1]; 300, 250, 200, 150 and 100 mg/L): clear declines in their feeding capacity; Insecticidal activity on aphids (aphids): able to kill aphids; Average Weight (10 Tested Larvae) (mg) Δ4d (diamondback moth larvae [2]; 100 mg/L): 4.13 mg; Average Weight (10 Tested Larvae) (mg) Δ4d (diamondback moth larvae [2]; 150 mg/L): 2.40 mg; Average Weight (10 Tested Larvae) (mg) Δ4d (diamondback moth larvae [2]; 200 mg/L): 1.33 mg; Average Weight (10 Tested Larvae) (mg) Δ4d (diamondback moth larvae [2]; 250 mg/L): 0.65 mg; Average Weight (10 Tested Larvae) (mg) Δ4d (diamondback moth larvae [2]; 300 mg/L): 0.48 mg; inhibition at 100 µg/mL (diamondback moth larvae [2]; Plutella xylostella, 72 h, 100 mg/L, 3 days after treatment, third-instar larvae, read-out: Weight Gain Inhibition Rate (%)): 18.3%; inhibition at 150 µg/mL (diamondback moth larvae [2]; Plutella xylostella, 72 h, 150 mg/L, 3 days after treatment, third-instar larvae, read-out: Weight Gain Inhibition Rate (%)): 52.5%; inhibition at 200 µg/mL (diamondback moth larvae [2]; Plutella xylostella, 72 h, 200 mg/L, 3 days after treatment, third-instar larvae, read-out: Weight Gain Inhibition Rate (%)): 73.8%; inhibition at 250 µg/mL (diamondback moth larvae [2]; Plutella xylostella, 72 h, 250 mg/L, 3 days after treatment, third-instar larvae, read-out: Weight Gain Inhibition Rate (%)): 87.1%; inhibition at 300 µg/mL (diamondback moth larvae [2]; Plutella xylostella, 72 h, 300 mg/L, 3 days after treatment, third-instar larvae, read-out: Weight Gain Inhibition Rate (%)): 90.6%; Non-selective antifeeding rate (diamondback moth larvae [3]; 200 mg/L, 48 hour): 65.75%; Non-selective antifeeding rate (diamondback moth larvae [3]; 250 mg/L, 48 hours): 75.73%; Non-selective antifeeding rate (diamondback moth larvae [3]; 300 mg/L, 48 hours): 77.64%; Average Corrected Death Rate (%), stomach poisoning (diamondback moth larvae [4]; 800 mg/L): 84.21%; Average Corrected Death Rate (%), stomach poisoning (diamondback moth larvae [4]; 1000 mg/L): 86.84%; Post-treatment death rates of the larvae (diamondback moth larvae [4]; 25-hour post-treatment, 1000 to 200 mg/L): below 30%; Lethal effect on diamondback moth (diamondback moth larvae [4]; in vivo): strong lethal effect
